“Also recorded” adds a separate entry of the source.
Assays:
[1] = tested on: PGD2 receptors (CRTH2 and DP) on HL-60 membranes; assay: [3H]PGD2 radioligand binding assay on HL-60 cell membranes; conditions: for differentiation-induced increase in PGD2 binding competed away: butyric acid differentiated HL-60, Example 3; for tritiated PGD2 binding on membranes competed away: membranes from butyric acid-differentiated HL-60 cells, 1 uM unlabeled competitor, FIG. 2; for binding of labeled PGD2 to membranes: membranes from undifferentiated HL-60 cells
Protocol: (§1) Membranes were isolated from butyric acid-differentiated HL-60 or undifferentiated AML14.3D10 and used in the PGD2 binding assay in the presence or absence of various 1 uM of non-labeled receptor agonists described here below:
(§2) Specific binding of radioactive PGD2 to the membrane was measured and compared to the value obtained in the absence of competitor (ctrl=100% maximum binding).
(§3) HL-60 or AML14.3D10 cells are collected by centrifugation for 6 min at 300 g at 4° C., washed with PBS, centrifuged as before and suspended in 10 mM HEPES/KOH pH 7.4, 1 mM EDTA. The cells are disrupted by nitrogen cavitation (800 psi for 30 min. on ice) in the presence of protease inhibitors (2 mM AEBSF, 10 μM E-64, 100 μM leupeptin and 0.05 mg/ml pepstatin). Cell membrane is isolated by differential centrifugation at 4° C., first at 1000 g for 10 min then 160 000 g for 30 min. After centrifugation the pellet comprising the cell membrane is suspended in 10 mM HEPES/KOH pH 7.4, 1 mM EDTA, pH 7.4 buffer using Dounce homogenization.
(§4) For these assays, specific receptor binding is defined as total associated radioactivity minus the radioactivity measured in the presence of an excess of unlabeled competing ligand. Where possible, more than one competing ligand is used to define residual nonspecific binding. Ligand binding assays are performed using whole cells or cell membranes derived therefrom.
(§5) Radioligand binding assays are performed in 10 mM HEPES/KOH pH 7.4, 1 mM EDTA containing 10 mM MnCl2 and 0.8 nM [^3H]PGD2, in a final volume of 0.2 ml. The reaction is initiated by the addition of 250 μg of membrane protein, prepared as described above. Ligands in dimethylsulfoxide which is kept constant at 1% (v/v) of the final incubation volume are added. Non-specific binding is determined in the presence of 10 μM PGD2. Incubation is conducted for 60 min. at room temperature and is terminated by rapid filtration through GF/C filters prewetted in cold assay incubation buffer (no EDTA) using a Brandel™ harvester. The filter is then washed with 4 ml of the same buffer and residual radioligand bound to the filter is determined by liquid scintillation counting following equilibration in 5 ml Ultima Gold™ (Packard).

[2] = tested on: PGD2 receptors (CRTH2 and DP) on AML14.3D10 membranes; assay: [3H]PGD2 radioligand binding assay on AML14.3D10 cell membranes; conditions: for differentiation-induced increase in PGD2 binding competed away: butyric acid differentiated AML14.3D10, Example 3; for tritiated PGD2 binding on membranes competed away: membranes from nondifferentiated or differentiated AML14.3D10, 1 uM unlabeled competitor, FIG. 2; for binding of labeled PGD2 to membranes: membranes from undifferentiated AML14.3D10 cells
Protocol: as §1, §2, §3, §4, §5

HL-60 cells = assay: Butyric acid induced differentiation of HL-60 cells, read out as PGD2 binding to membranes; format: cell-based; conditions: 0.4 mM butyric acid for 7 days
Protocol: (§6) For example, referring to FIG. 1, shown therein are the results of a binding assay, specifically the binding of radioactive PGD2 to membranes. The assay measures the amount of labeled […] bound to cell membranes derived from the herein disclosed cell lines. Briefly, AML14.3D10 and […] cell lines are incubated in the absence and/or presence of […] of butyric acid for 7 days. Membranes were thereafter isolated from the cells and used in aforementioned PGD2 binding assays.
(§7) On the first day of the experiment cells are split at 2×10^5 cells/ml and supplemented with 0.4 mM butyric acid. On the fourth day the cells are diluted to 2×10^5 cells/ml and the concentration of butyric acid is adjusted to 0.4 mM. The cells are harvested on the seventh day.
(§8) HL-60 or AML14.3D10 cells are collected by centrifugation for 6 min at 300 g at 4° C., washed with PBS, centrifuged as before and suspended in 10 mM HEPES/KOH pH 7.4, 1 mM EDTA. […]
(§9) Radioligand binding assays are performed in 10 mM HEPES/KOH pH 7.4, 1 mM EDTA containing 10 mM MnCl2 and 0.8 nM [^3H]PGD2, in a final volume of 0.2 ml. […] Non-specific binding is determined in the presence of 10 μM PGD2. […] The filter is then washed with 4 ml of the same buffer and residual radioligand bound to the filter is determined by liquid scintillation counting following equilibration in 5 ml Ultima Gold™ (Packard).

AML14.3D10 cells = assay: Butyric acid induced differentiation of AML14.3D10 cells, read out as PGD2 binding to membranes; format: cell-based; conditions: 0.4 mM butyric acid for 7 days
Protocol: as §6, §7, §8, §9

| SMILES | differentiation-induced increase in PGD2 binding competed away [1] | tritiated PGD2 binding on membranes competed away [1] | differentiation-induced increase in PGD2 binding competed away [2] | tritiated PGD2 binding on membranes competed away [2] | binding of labeled PGD2 to membranes [1] | binding of labeled PGD2 to membranes ([1]; listed as 3HPGD2) | binding of labeled PGD2 to membranes [2] | binding of labeled PGD2 to membranes ([2]; listed as 3HPGD2) | effect of butyric acid treatment on PGD2 binding to membranes (HL-60 cells) | effect of butyric acid treatment on PGD2 binding to membranes (AML14.3D10 cells) |
| --- | --- | --- | --- | --- | --- | --- | --- | --- | --- | --- |
| O=C(O)CCCCCCC1C(=O)NC(=O)N1CCC(O)C1CCCCC1 (centres unmarked) [BW245C] | about 10% | about 10% | about 10% | about 10% | – | – | – | – | – | – |
| CCCCCC(=O)CCC1C(=O)CC(O)C1C/C=C\CCCC(=O)O (centres unmarked) [DK-PGD2, 13,14-dihydro-15-keto-PGD2] | About 90% | about 90% | About 90% | about 90% | – | – | – | – | – | – |
| CCCCC[C@H](O)/C=C/[C@H]1C(=O)C[C@H](O)[C@@H]1C/C=C\CCCC(=O)O [PGD2, Prostaglandin D2] | – | – | – | – | minimal amount of PGD2 binding | does not bind | appreciable level of PGD2 binding | significant level of binding | – | – |
| CCCC(=O)O [butyric acid] | – | – | – | – | – | – | – | – | significant increase in PGD2 binding; also recorded: acquired the capacity to bind | significant increase in PGD2 binding; also recorded: increased binding of PGD2 |

Source: patent US20040197834A1, “Method to increase expression of pgd2 receptors and assays for identifying modulators of prostaglandin d2 receptors” (priority 2001, published 2004)
